Measured values reported in patent US20100041642A1, “UREA INHIBITORS OF MAP KINASES” (LOCUS PHARMACEUTICALS, INC., priority 2008, published 2010).

Molecular target: p38 (Homo sapiens, UniProt Q16539)
Assay: Protein Kinase Assay (33P incorporation from γ-[33P]ATP into GST-ATF-2)
Format: biochemical
Conditions: 2 nM p38, preincubated 20 min at 30° C.; 10 uM cold ATP, 2 uM GST-ATF2, 70 min; read-out: ACT. (Activity), IC50 category in Protein Kinase Assay
In short: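 Compounds preincubated 20 min at 30 °C with 2 nM p38; reaction started with 2 uM GST-ATF-2 (aa 19-96) and 10 uM ATP plus γ-[33P]ATP, pH 7.5, 70 min at 30 °C, 2% DMSO. Phosphoric acid stop; 33P-labelled substrate captured on phosphocellulose and counted by scintillation.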

p38, sequence (Q16539 whole entry): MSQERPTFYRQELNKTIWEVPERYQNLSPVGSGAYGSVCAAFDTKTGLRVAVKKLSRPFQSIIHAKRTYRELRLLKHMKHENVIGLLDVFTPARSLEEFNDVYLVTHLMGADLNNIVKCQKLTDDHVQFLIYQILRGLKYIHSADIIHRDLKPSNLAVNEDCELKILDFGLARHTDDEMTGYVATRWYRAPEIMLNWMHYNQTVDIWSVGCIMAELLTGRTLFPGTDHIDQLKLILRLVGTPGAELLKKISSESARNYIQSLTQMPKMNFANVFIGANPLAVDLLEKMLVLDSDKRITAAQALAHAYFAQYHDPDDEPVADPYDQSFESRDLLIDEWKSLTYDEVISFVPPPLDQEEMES

Row | IC50 [nM] | SMILES
1 | < 100 | COc1ccc(-c2cc(NC(=O)Nc3sc(C(C)(C)C)cc3C(=O)N3CCN(CCO)C(=O)C3(C)C)ccc2C)cn1 [1-(5-tert-butyl-3-(4-(2-hydroxyethyl)-2,2-dimethyl-3-oxopiperazine-1-carbonyl)thiophen-2-yl)-3-(3-(6-methoxypyridin-3-yl)-4-methylphenyl)urea]
2 | < 100 | CC(=O)N1CCN(C(=O)c2cc(C(C)(C)C)sc2NC(=O)Nc2ccc(C)c(-c3cccnc3)c2)CC1 [1-(5-tert-butyl-3-(4-ethanoylpiperazine-1-carbonyl)thiophen-2-yl)-3-(4-methyl-3-(pyridin-3-yl)phenyl)urea]
3 | < 100 | Cc1ccc(NC(=O)Nc2sc(C(C)(C)C)cc2C(=O)N2CCNC(=O)CC2)cc1-c1cnc(N2CCOCC2)nc1 [1-(5-tert-butyl-3-(5-oxo-1,4-diazepane-1-carbonyl)thiophen-2-yl)-3-(4-methyl-3-(2-morpholinopyrimidin-5-yl)phenyl)urea]
4 | < 100 | Cc1ccc(NC(=O)Nc2sc(C(C)(C)C)cc2C(=O)N2CCNC(=O)CC2)cc1-c1cccnc1 [1-(5-tert-butyl-3-(5-oxo-1,4-diazepane-1-carbonyl)thiophen-2-yl)-3-(4-methyl-3-(pyridin-3-yl)phenyl)urea]
5 | < 100 | Cc1ccc(NC(=O)Nc2sc(C(C)(C)C)cc2C(=O)N2CCN(C)C(=O)C2(C)C)cc1-c1ccc(C[N+]2([O-])CCOCC2)nc1 [4-((5-(5-(3-(5-tert-butyl-3-(2,2,4-trimethyl-3-oxopiperazine-1-carbonyl)thiophen-2-yl)ureido)-2-methylphenyl)pyridin-2-yl)methyl)morpholine 4-oxide]
6 | < 100 | CCNC(=O)c1ccc(-c2cc(NC(=O)Nc3cn(C(C)(C)C)nc3C(=O)N3CCN(C)C(=O)C3(C)C)ccc2C)cn1 [5-(5-(3-(1-tert-butyl-3-(2,2,4-trimethyl-3-oxopiperazine-1-carbonyl)-1H-pyrazol-4-yl)ureido)-2-methylphenyl)-N-ethylpyridine-2-carboxamide]
7 | < 100 | CCNC(=O)c1ccc(-c2cc(NC(=O)Nc3cc(C(C)(C)C)sc3C(=O)N3CCN(C)C(=O)C3(C)C)ccc2C)cn1 [5-(5-(3-(5-tert-butyl-2-(2,2,4-trimethyl-3-oxopiperazine-1-carbonyl)thiophen-3-yl)ureido)-2-methylphenyl)-N-ethylpyridine-2-carboxamide]
8 | < 100 | Cc1ccc(NC(=O)Nc2sc(C(C)(C)C)cc2C(=O)N2CCN(C)C(=O)C2(C)C)cc1-c1ccc(C(N)=O)nc1 [5-(5-(3-(5-tert-butyl-3-(2,2,4-trimethyl-3-oxopiperazine-1-carbonyl)thiophen-2-yl)ureido)-2-methylphenyl)pyridine-2-carboxamide]
9 | < 100 | CCNC(=O)c1ccc(-c2cc(NC(=O)Nc3sc(C(C)(C)C)cc3C(=O)N3CCNC(=O)C3(C)C)ccc2C)cn1 [5-(5-(3-(5-tert-butyl-3-(2,2-dimethyl-3-oxopiperazine-1-carbonyl)thiophen-2-yl)ureido)-2-methylphenyl)-N-ethylpyridine-2-carboxamide]

The remaining lines, values behind:

Row | SMILES | IC50 [nM]
10 | Cc1ccc(NC(=O)Nc2sc(C(C)(C)C)cc2C(=O)N2CCN(CCN(C)C)C(=O)C2(C)C)cc1-c1cccnc1 [1-(5-tert-butyl-3-(4-(2-(dimethylamino)ethyl)-2,2-dimethyl-3-oxopiperazine-1-carbonyl)thiophen-2-yl)-3-(4-methyl-3-(pyridin-3-yl)phenyl)urea] | < 100
11 | COc1ccc(-c2cc(NC(=O)Nc3sc(C(C)(C)C)cc3C(=O)N3CCC(=O)N(C)CC3)ccc2C)cn1 [1-(5-tert-butyl-3-(4-methyl-5-oxo-1,4-diazepane-1-carbonyl)thiophen-2-yl)-3-(3-(6-methoxypyridin-3-yl)-4-methylphenyl)urea] | < 100
12 | Cc1ccc(NC(=O)Nc2sc(C(C)(C)C)cc2C(=O)N2CCC(=O)N(C)CC2)cc1-c1ccc(N2CCOCC2)cn1 [1-(5-tert-butyl-3-(4-methyl-5-oxo-1,4-diazepane-1-carbonyl)thiophen-2-yl)-3-(4-methyl-3-(5-morpholinopyridin-2-yl)phenyl)urea] | < 100
13 | Cc1ccc(NC(=O)Nc2sc(C(C)(C)C)cc2C(=O)N2CCNC(=O)C2(C)C)cc1-c1cccc[n+]1[O-] [2-(5-(3-(5-tert-butyl-3-(2,2-dimethyl-3-oxopiperazine-1-carbonyl)thiophen-2-yl)ureido)-2-methylphenyl)pyridine 1-oxide] | < 100
14 | Cc1ccc(NC(=O)Nc2sc(C(C)(C)C)cc2C(=O)N2CCNC(=O)C2(C)C)cc1-c1cc[n+]([O-])cc1 [4-(5-(3-(5-tert-butyl-3-(2,2-dimethyl-3-oxopiperazine-1-carbonyl)thiophen-2-yl)ureido)-2-methylphenyl)pyridine 1-oxide] | < 100
15 | Cc1ccc(NC(=O)Nc2sc(C(C)(C)C)cc2C(=O)N2CCN(C)C(=O)C2(C)C)cc1-c1ccc(C[N+]2([O-])CCOCC2)[n+]([O-])c1 [4-((5-(5-(3-(5-tert-butyl-3-(2,2,4-trimethyl-3-oxopiperazine-1-carbonyl)thiophen-2-yl)ureido)-2-methylphenyl)-1-oxidopyridin-2-yl)methyl)morpholine 4-oxide] | < 1000
16 | CCNC(=O)c1ccc(-c2cc(NC(=O)Nc3cn(C(C)(C)C)nc3C(=O)N3CCNC(=O)C3(C)C)ccc2C)cn1 [5-(5-(3-(1-tert-butyl-3-(2,2-dimethyl-3-oxopiperazine-1-carbonyl)-1H-pyrazol-4-yl)ureido)-2-methylphenyl)-N-ethylpyridine-2-carboxamide] | < 100
17 | CCNC(=O)c1ccc(-c2cc(NC(=O)Nc3sc(C(C)(C)C)nc3C(=O)N3CCN(C)C(=O)C3(C)C)ccc2C)cn1 [5-(5-(3-(2-tert-butyl-4-(2,2,4-trimethyl-3-oxopiperazine-1-carbonyl)thiazol-5-yl)ureido)-2-methylphenyl)-N-ethylpyridine-2-carboxamide] | < 100
18 | CCNC(=O)c1ccc(-c2cc(NC(=O)Nc3cc(C(C)(C)C)oc3C(=O)N3CCN(C)C(=O)C3(C)C)ccc2C)cn1 [5-(5-(3-(5-tert-butyl-2-(2,2,4-trimethyl-3-oxopiperazine-1-carbonyl)furan-3-yl)ureido)-2-methylphenyl)-N-ethylpyridine-2-carboxamide] | < 100
19 | COCCNC(=O)c1ccc(-c2cc(NC(=O)Nc3sc(C(C)(C)C)cc3C(=O)N3CCN(C)C(=O)C3(C)C)ccc2C)cn1 [5-(5-(3-(5-tert-butyl-3-(2,2,4-trimethyl-3-oxopiperazine-1-carbonyl)thiophen-2-yl)ureido)-2-methylphenyl)-N-(2-methoxyethyl)pyridine-2-carboxamide] | < 100
20 | CCNC(=O)c1ccc(-c2cc(NC(=O)Nc3sc(C(C)(C)C)cc3C(=O)N3CCN(C)C(=O)C3(C)C)ccc2C)cn1 [5-(5-(3-(5-tert-butyl-3-(2,2,4-trimethyl-3-oxopiperazine-1-carbonyl)thiophen-2-yl)ureido)-2-methylphenyl)-N-ethylpyridine-2-carboxamide] | < 100
21 | CON(C)C(=O)c1ccc(-c2cc(NC(=O)Nc3sc(C(C)(C)C)cc3C(=O)N3CCN(C)C(=O)C3(C)C)ccc2C)cn1 [5-(5-(3-(5-tert-butyl-3-(2,2,4-trimethyl-3-oxopiperazine-1-carbonyl)thiophen-2-yl)ureido)-2-methylphenyl)-N-methoxy-N-methylpyridine-2-carboxamide] | < 100
